Laboratory results from the NIST ThermoML archive (doi:10.1016/j.fluid.2015.03.016).
Values joined by “and” are separate entries in the source; they are usually repeats but may differ in a detail not shown here. Identical values can stand only once.

Conditions: Liquid, Vibrating wire viscometry

CCCCOC(=O)CCCCC(=O)OCCCC [dibutyl hexanedioate]
Conditions	viscosity
333.15 K, 5090 kPa	2.366 mPa·s
333.15 K, 5100 kPa	2.361 mPa·s and 2.362 mPa·s
333.15 K, 5210 kPa	2.361 mPa·s and 2.365 mPa·s
333.15 K, 5220 kPa	2.366 mPa·s
333.15 K, 7790 kPa	2.42 mPa·s and 2.421 mPa·s
333.15 K, 7800 kPa	2.421 mPa·s
333.15 K, 10100 kPa	2.493 mPa·s
333.15 K, 10120 kPa	2.495 mPa·s
333.15 K, 10130 kPa	2.495 mPa·s
333.15 K, 10160 kPa	2.493 mPa·s
333.15 K, 14860 kPa	2.621 mPa·s
333.15 K, 15150 kPa	2.62 mPa·s
333.15 K, 15240 kPa	2.619 mPa·s
333.15 K, 15260 kPa	2.625 mPa·s
333.15 K, 20250 kPa	2.763 mPa·s
333.15 K, 20260 kPa	2.76 mPa·s
333.15 K, 20270 kPa	2.761 mPa·s
333.15 K, 20290 kPa	2.76 mPa·s
333.15 K, 29840 kPa	3.05 mPa·s
333.15 K, 29880 kPa	3.043 mPa·s
333.15 K, 30130 kPa	3.05 mPa·s
333.15 K, 30150 kPa	3.042 mPa·s
333.15 K, 30230 kPa	3.047 mPa·s
333.15 K, 39970 kPa	3.331 mPa·s
333.15 K, 40020 kPa	3.332 mPa·s
333.15 K, 40070 kPa	3.33 mPa·s
333.15 K, 40080 kPa	3.335 mPa·s
333.15 K, 49990 kPa	3.644 mPa·s
333.15 K, 50000 kPa	3.638 mPa·s and 3.636 mPa·s and 3.632 mPa·s
333.15 K, 61450 kPa	4.065 mPa·s
333.15 K, 61480 kPa	4.064 mPa·s
333.15 K, 61600 kPa	4.055 mPa·s
333.15 K, 61660 kPa	4.057 mPa·s
333.16 K, 2490 kPa	2.298 mPa·s
333.16 K, 2580 kPa	2.299 mPa·s
333.16 K, 5220 kPa	2.361 mPa·s
333.16 K, 7780 kPa	2.422 mPa·s
343.14 K, 20120 kPa	2.335 mPa·s and 2.332 mPa·s
343.14 K, 39830 kPa	2.803 mPa·s
343.14 K, 39840 kPa	2.809 mPa·s
343.14 K, 39860 kPa	2.807 mPa·s
343.14 K, 39870 kPa	2.804 mPa·s
343.14 K, 39880 kPa	2.81 mPa·s
343.14 K, 65480 kPa	3.489 mPa·s
343.14 K, 65500 kPa	3.484 mPa·s
343.15 K, 1100 kPa	1.917 mPa·s and 1.916 mPa·s
343.15 K, 1170 kPa	1.915 mPa·s
343.15 K, 1240 kPa	1.914 mPa·s
343.15 K, 1260 kPa	1.918 mPa·s and 1.915 mPa·s
343.15 K, 2480 kPa	1.949 mPa·s
343.15 K, 2500 kPa	1.945 mPa·s and 1.947 mPa·s
343.15 K, 2520 kPa	1.948 mPa·s
343.15 K, 2530 kPa	1.95 mPa·s
343.15 K, 2580 kPa	1.946 mPa·s
343.15 K, 4960 kPa	1.993 mPa·s
343.15 K, 4970 kPa	1.994 mPa·s
343.15 K, 4980 kPa	1.992 mPa·s
343.15 K, 4990 kPa	1.989 mPa·s
343.15 K, 7500 kPa	2.054 mPa·s
343.15 K, 7510 kPa	2.057 mPa·s and 2.059 mPa·s
343.15 K, 7520 kPa	2.056 mPa·s
343.15 K, 10030 kPa	2.118 mPa·s
343.15 K, 10040 kPa	2.117 mPa·s and 2.119 mPa·s
343.15 K, 10090 kPa	2.117 mPa·s
343.15 K, 15220 kPa	2.224 mPa·s
343.15 K, 15240 kPa	2.222 mPa·s
343.15 K, 15260 kPa	2.221 mPa·s
343.15 K, 20040 kPa	2.334 mPa·s
343.15 K, 20160 kPa	2.337 mPa·s
343.15 K, 20210 kPa	2.335 mPa·s
343.15 K, 20240 kPa	2.332 mPa·s
